Assay results as given in ChEMBL document CHEMBL3885881, “DrugMatrix”.

Species on record: Rattus norvegicus
Assay: DrugMatrix - Regimen: Daily Repeat
Format: toxicity, organism-based, Sprague-Dawley
Set-up: regimen Daily Repeat, gender Male, age 6-8 weeks
Conditions: in vivo, po, route oral GAVAGE, vehicle .5 % CMC; for ABSOLUTE BASOPHIL / ABSOLUTE EOSINOPHIL / ABSOLUTE LYMPHOCYTE / ABSOLUTE MONOCYTE / ABSOLUTE SEGMENTED NEUTROPHIL / BASOPHIL / EOSINOPHIL / ERYTHROCYTE COUNT / HEMATOCRIT / HEMOGLOBIN / LEUKOCYTE COUNT / LYMPHOCYTE / MEAN CORPUSCULAR HEMOGLOBIN / MEAN CORPUSCULAR HEMOGLOBIN CONCENTRATION / MEAN CORPUSCULAR VOLUME / MONOCYTE / NEUTROPHIL / NUCLEATED RED BLOOD CELLS / PLATELET COUNT: tissue Blood; for ALANINE AMINOTRANSFERASE / ALBUMIN / ALKALINE PHOSPHATASE / ASPARTATE AMINOTRANSFERASE / BLOOD UREA NITROGEN / CARBON DIOXIDE / CHLORIDE / CHOLESTEROL / CREATINE PHOSPHOKINASE / CREATININE / GLUCOSE / LACTATE DEHYDROGENASE / LIPASE / PHOSPHORUS / POTASSIUM / SODIUM / TOTAL BILIRUBIN / TOTAL PROTEIN / URIC ACID: tissue Plasma
[1] = 50 mg/kg, 72 h, dose level Low, time 3 day
[2] = 50 mg/kg, 120 h, dose level Low, time 5 day
[3] = 1200 mg/kg, 72 h, dose level High, time 3 day
[4] = 1200 mg/kg, 120 h, dose level High, time 5 day

CC[C@H](C)C(=O)O[C@H]1CCC=C2C=C[C@H](C)[C@H](CC[C@@H]3C[C@@H](O)CC(=O)O3)[C@H]21 [MEVASTATIN]
ABSOLUTE BASOPHIL [1]: 0 CELLS/uL
ABSOLUTE EOSINOPHIL [1]: 41.33 CELLS/uL
ABSOLUTE LYMPHOCYTE [1]: 11887.33 CELLS/uL
ABSOLUTE MONOCYTE [1]: 84.33 CELLS/uL
ABSOLUTE SEGMENTED NEUTROPHIL [1]: 587 CELLS/uL
BASOPHIL [1]: 0%
EOSINOPHIL [1]: 0.33%
ERYTHROCYTE COUNT [1]: 5.78 x10E6/uL
HEMATOCRIT [1]: 37.3%
HEMOGLOBIN [1]: 14.77 G/DL
LEUKOCYTE COUNT [1]: 12.6 x10E3/uL
LYMPHOCYTE [1]: 94.33%
MEAN CORPUSCULAR HEMOGLOBIN [1]: 25.53 pg
MEAN CORPUSCULAR HEMOGLOBIN CONCENTRATION [1]: 39.6 G/DL
MEAN CORPUSCULAR VOLUME [1]: 64.47 fL
MONOCYTE [1]: 0.67%
NEUTROPHIL [1]: 4.67%
NUCLEATED RED BLOOD CELLS [1]: 1 /100WBC
PLATELET COUNT [1]: 1148.33 x10E3/uL
ALANINE AMINOTRANSFERASE [1]: 48.67 u/L
ALBUMIN [1]: 4.43 G/DL
ALKALINE PHOSPHATASE [1]: 400 u/L
ASPARTATE AMINOTRANSFERASE [1]: 85.67 u/L
BLOOD UREA NITROGEN [1]: 16 mg/dL
CARBON DIOXIDE [1]: 25.33 mmol/L
CHLORIDE [1]: 100.33 MEQ/L
CHOLESTEROL [1]: 87 mg/dL
CREATINE PHOSPHOKINASE [1]: 404 u/L
CREATININE [1]: 0.2 mg/dL
GLUCOSE [1]: 161 mg/dL
LACTATE DEHYDROGENASE [1]: 232.67 u/L
LIPASE [1]: 8.67 u/L
PHOSPHORUS [1]: 14.2 mg/dL
POTASSIUM [1]: 6.89 MEQ/L
SODIUM [1]: 146.63 MEQ/L
TOTAL BILIRUBIN [1]: 0.33 mg/dL
TOTAL PROTEIN [1]: 6.2 G/DL
URIC ACID [1]: 1.93 mg/dL
ABSOLUTE BASOPHIL [2]: 0 CELLS/uL
ABSOLUTE EOSINOPHIL [2]: 47 CELLS/uL
ABSOLUTE LYMPHOCYTE [2]: 15631 CELLS/uL
ABSOLUTE MONOCYTE [2]: 0 CELLS/uL
ABSOLUTE SEGMENTED NEUTROPHIL [2]: 1122 CELLS/uL
BASOPHIL [2]: 0%
EOSINOPHIL [2]: 0.33%
ERYTHROCYTE COUNT [2]: 5.52 x10E6/uL
HEMATOCRIT [2]: 35.63%
HEMOGLOBIN [2]: 13.8 G/DL
LEUKOCYTE COUNT [2]: 16.8 x10E3/uL
LYMPHOCYTE [2]: 93%
MEAN CORPUSCULAR HEMOGLOBIN [2]: 25.03 pg
MEAN CORPUSCULAR HEMOGLOBIN CONCENTRATION [2]: 38.77 G/DL
MEAN CORPUSCULAR VOLUME [2]: 64.6 fL
MONOCYTE [2]: 0%
NEUTROPHIL [2]: 6.67%
NUCLEATED RED BLOOD CELLS [2]: 1 /100WBC
PLATELET COUNT [2]: 1219.33 x10E3/uL
ALANINE AMINOTRANSFERASE [2]: 52.67 u/L
ALBUMIN [2]: 4.5 G/DL
ALKALINE PHOSPHATASE [2]: 335.67 u/L
ASPARTATE AMINOTRANSFERASE [2]: 79.67 u/L
BLOOD UREA NITROGEN [2]: 15.67 mg/dL
CARBON DIOXIDE [2]: 25.67 mmol/L
CHLORIDE [2]: 103 MEQ/L
CHOLESTEROL [2]: 67.33 mg/dL
CREATINE PHOSPHOKINASE [2]: 212.33 u/L
CREATININE [2]: 0.19 mg/dL
GLUCOSE [2]: 153.33 mg/dL
LACTATE DEHYDROGENASE [2]: 162 u/L
LIPASE [2]: 9 u/L
PHOSPHORUS [2]: 12.43 mg/dL
POTASSIUM [2]: 6.8 MEQ/L
SODIUM [2]: 146.23 MEQ/L
TOTAL BILIRUBIN [2]: 0.23 mg/dL
TOTAL PROTEIN [2]: 6.3 G/DL
URIC ACID [2]: 1.63 mg/dL
ABSOLUTE BASOPHIL [3]: 0 CELLS/uL
ABSOLUTE EOSINOPHIL [3]: 56 CELLS/uL
ABSOLUTE LYMPHOCYTE [3]: 15055 CELLS/uL
ABSOLUTE MONOCYTE [3]: 329 CELLS/uL
ABSOLUTE SEGMENTED NEUTROPHIL [3]: 1226.67 CELLS/uL
BASOPHIL [3]: 0%
EOSINOPHIL [3]: 0.33%
ERYTHROCYTE COUNT [3]: 5.72 x10E6/uL
HEMATOCRIT [3]: 38.57%
HEMOGLOBIN [3]: 15.2 G/DL
LEUKOCYTE COUNT [3]: 16.67 x10E3/uL
LYMPHOCYTE [3]: 90.33%
MEAN CORPUSCULAR HEMOGLOBIN [3]: 26.6 pg
MEAN CORPUSCULAR HEMOGLOBIN CONCENTRATION [3]: 39.43 G/DL
MEAN CORPUSCULAR VOLUME [3]: 67.5 fL
MONOCYTE [3]: 2%
NEUTROPHIL [3]: 7.33%
NUCLEATED RED BLOOD CELLS [3]: 0.67 /100WBC
PLATELET COUNT [3]: 1303 x10E3/uL
ALANINE AMINOTRANSFERASE [3]: 47.67 u/L
ALBUMIN [3]: 4.63 G/DL
ALKALINE PHOSPHATASE [3]: 402.33 u/L
ASPARTATE AMINOTRANSFERASE [3]: 96.67 u/L
BLOOD UREA NITROGEN [3]: 20 mg/dL
CARBON DIOXIDE [3]: 29.33 mmol/L
CHLORIDE [3]: 102.67 MEQ/L
CHOLESTEROL [3]: 68.33 mg/dL
CREATINE PHOSPHOKINASE [3]: 235 u/L
CREATININE [3]: 0.16 mg/dL
GLUCOSE [3]: 180 mg/dL
LACTATE DEHYDROGENASE [3]: 194 u/L
LIPASE [3]: 9 u/L
PHOSPHORUS [3]: 14.33 mg/dL
POTASSIUM [3]: 7.63 MEQ/L
SODIUM [3]: 146.93 MEQ/L
TOTAL BILIRUBIN [3]: 0.13 mg/dL
TOTAL PROTEIN [3]: 6.37 G/DL
URIC ACID [3]: 2.77 mg/dL
ABSOLUTE BASOPHIL [4]: 0 CELLS/uL
ABSOLUTE EOSINOPHIL [4]: 0 CELLS/uL
ABSOLUTE LYMPHOCYTE [4]: 14826.67 CELLS/uL
ABSOLUTE MONOCYTE [4]: 346.67 CELLS/uL
ABSOLUTE SEGMENTED NEUTROPHIL [4]: 1426.67 CELLS/uL
BASOPHIL [4]: 0%
EOSINOPHIL [4]: 0%
ERYTHROCYTE COUNT [4]: 5.39 x10E6/uL
HEMATOCRIT [4]: 33.63%
HEMOGLOBIN [4]: 13.5 G/DL
LEUKOCYTE COUNT [4]: 16.6 x10E3/uL
LYMPHOCYTE [4]: 89.67%
MEAN CORPUSCULAR HEMOGLOBIN [4]: 25.1 pg
MEAN CORPUSCULAR HEMOGLOBIN CONCENTRATION [4]: 40.2 G/DL
MEAN CORPUSCULAR VOLUME [4]: 62.43 fL
MONOCYTE [4]: 2%
NEUTROPHIL [4]: 8.33%
NUCLEATED RED BLOOD CELLS [4]: 0 /100WBC
PLATELET COUNT [4]: 1567.67 x10E3/uL
ALANINE AMINOTRANSFERASE [4]: 54.33 u/L
ALBUMIN [4]: 4.5 G/DL
ALKALINE PHOSPHATASE [4]: 319 u/L
ASPARTATE AMINOTRANSFERASE [4]: 97 u/L
BLOOD UREA NITROGEN [4]: 19.33 mg/dL
CARBON DIOXIDE [4]: 33 mmol/L
CHLORIDE [4]: 100.33 MEQ/L
CHOLESTEROL [4]: 65.33 mg/dL
CREATINE PHOSPHOKINASE [4]: 319.67 u/L
CREATININE [4]: 0.19 mg/dL
GLUCOSE [4]: 136.67 mg/dL
LACTATE DEHYDROGENASE [4]: 464 u/L
LIPASE [4]: 8.67 u/L
PHOSPHORUS [4]: 12.33 mg/dL
POTASSIUM [4]: 6.95 MEQ/L
SODIUM [4]: 143.97 MEQ/L
TOTAL BILIRUBIN [4]: 0.2 mg/dL
TOTAL PROTEIN [4]: 6.1 G/DL
URIC ACID [4]: 1.8 mg/dL
